Our source for the IC50 values is BindingDB's records for doi:10.7270/Q2SX6BMJ (Burnham Center for Chemical Genomics, 2008).

As a reminder, the IC50 is the concentration at which inhibition is half-maximal. A higher IC50 goes with lower potency.

The assay addresses T1, Alkaline phosphatase, tissue-nonspecific isozyme (Homo sapiens, UniProt P05186).
T1 sequence (P05186 whole entry): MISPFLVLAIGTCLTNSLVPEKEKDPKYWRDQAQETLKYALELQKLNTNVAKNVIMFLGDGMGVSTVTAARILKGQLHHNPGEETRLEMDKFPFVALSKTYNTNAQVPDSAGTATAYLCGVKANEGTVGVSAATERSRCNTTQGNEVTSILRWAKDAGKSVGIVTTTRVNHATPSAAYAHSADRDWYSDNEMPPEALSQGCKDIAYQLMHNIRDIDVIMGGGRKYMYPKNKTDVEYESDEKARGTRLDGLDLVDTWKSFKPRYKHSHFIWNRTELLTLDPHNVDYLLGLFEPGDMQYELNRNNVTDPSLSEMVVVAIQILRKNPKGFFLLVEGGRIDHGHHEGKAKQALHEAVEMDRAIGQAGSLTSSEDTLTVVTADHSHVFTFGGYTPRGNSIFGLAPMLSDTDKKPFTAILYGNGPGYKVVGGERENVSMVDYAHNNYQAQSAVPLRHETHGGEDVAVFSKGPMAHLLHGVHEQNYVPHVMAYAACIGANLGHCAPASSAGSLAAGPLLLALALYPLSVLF
The experiment in a line: inhibition of tissue-nonspecific alkaline phosphatase – biochemical, luminescent (AID 518).
`COc1ccc(-c2[nH]nc3oc(=O)cc(C)c23)cc1` displayed an IC50 of 1.35 µM. For `COC(=O)c1cc(-c2ccc(Br)cc2)n[nH]1`, the midpoint of inhibition, the IC50, lay at 1.14 µM. `c1ccc(-c2[nH]nc3ccccc23)cc1` displayed an IC50 of 3.72 µM.

`CC(=N)C(C#N)C(=O)CSc1nnc(-c2ccccc2Br)[nH]1` (configuration not stated) returned an IC50 of 1.73 µM. For the compound `O=C(Nc1nnc(C2CCCCC2)[nH]1)C1CCCCC1`, the IC50 was > 100 µM. `CC1(C)CC(=O)c2c(n[nH]c2Cc2ccccc2)C1` displayed an IC50 of 1.83 µM.

`O=C(O)c1cc(-c2ccc(Cl)cc2)n[nH]1` gave a half-inhibitory concentration (IC50) of 2.67 µM. The IC50 values of the last two compounds are within 1.5-fold of each other. With `Brc1ccc(-c2nnc3sc(CNCc4ccc5c(c4)OCO5)cn23)cc1` [1-(1,3-benzodioxol-5-yl)-N-[[3-(4-bromophenyl)-6-thiazolo[2,3-c][1,2,4]triazolyl]methyl]methanamine], the IC50 was > 100 µM. Then `O=C(Cc1ccc(-n2cccc2)cc1)N1CCN(c2ccccc2F)CC1` [1-(2-fluorophenyl)-4-{[4-(1H-pyrrol-1-yl)phenyl]acetyl}piperazine], with > 100 µM; and `Cc1ccc2c(c1)-c1c(cnn1CC(=O)N1CCCN(Cc3ccccc3F)C1)CO2` [1-[3-(2-fluorobenzyl)hexahydropyrimidin-1-yl]-2-(8-methyl-4H-chromeno[4,3-c]pyrazol-1-yl)ethanone], with > 100 µM; and `O=c1c(=Cc2ccco2)sc2nc(-c3ccccc3Br)nn12` [2-(2-bromophenyl)-5-(2-furanylmethylidene)-6-thiazolo[3,2-b][1,2,4]triazolone], with > 100 µM.

As to `Cc1ccc(-n2c(Cc3cccn3C)nnc2SCC(=O)Nc2nnc(C)s2)cc1` [2-({4-(4-methylphenyl)-5-[(1-methyl-1H-pyrrol-2-yl)methyl]-4H-1,2,4-triazol-3-yl}thio)-N-(5-methyl-1,3,4-thiadiazol-2-yl)acetamide], the IC50 was > 100 µM.

For the compound `CCc1ccc(OCc2nc(-c3ccccn3)no2)c(Br)c1` [2-{5-[(2-bromo-4-ethylphenoxy)methyl]-1,2,4-oxadiazol-3-yl}pyridine], the IC50 was > 100 µM. Turning to `CCOC(=O)N1CCN(C(=O)c2ccc(CS(=O)(=O)c3ccccc3OC)o2)CC1` [4-[5-[(2-methoxyphenyl)sulfonylmethyl]-2-furoyl]piperazine-1-carboxylic acid ethyl ester], the 50% inhibitory concentration (IC50) is > 100 µM.

In the case of `Cc1ccsc1C=c1sc2ncnn2c1=O` [5-[(3-methyl-2-thienyl)methylene][1,3]thiazolo[3,2-b][1,2,4]triazol-6(5H)-one], 11.7 µM corresponded to half-maximal inhibition (IC50). This lies in the double-digit micromolar range. In turn, `COc1cc(CSc2nnc[nH]2)c(OC)cc1CSc1nnc[nH]1` [5-[[2,5-dimethoxy-4-[(1H-1,2,4-triazol-5-ylthio)methyl]phenyl]methylthio]-1H-1,2,4-triazole] returned an IC50 of 1.66 µM. In the case of `COCc1n[nH]c2c1C(c1cc(OC)c(O)c(OC)c1)C(C#N)C(=N)O2` (configuration not stated) [6-azanyl-4-(3,5-dimethoxy-4-oxidanyl-phenyl)-3-(methoxymethyl)-2,4-dihydropyrano[2,3-c]pyrazole-5-carbonitrile], the IC50 was determined as 5.25 µM. Then `COc1ccc2c(c1)CCc1c-2n[nH]c1C(=O)O` [7-methoxy-4,5-dihydro-2H-benzo[g]indazole-3-carboxylic acid], with 2.62 µM; and `O=C(C1CCN(S(=O)(=O)N2CCC3(CC2)OCCO3)CC1)N1CCN(Cc2ccccc2)CC1` [(4-benzylpiperazin-1-yl)-[1-(1,4-dioxa-8-azaspiro[4.5]decan-8-ylsulfonyl)piperidin-4-yl]methanone], with > 100 µM; and `O=C(Cn1c(-c2ccccc2)noc1=O)Nc1ccc(N2CCCCCC2)cc1` [MLS000027331], with > 100 µM. `Cn1ncc2c1ncn1nc(CCc3ccccc3)nc21` [MLS000040759] displayed an IC50 of 15.8 µM. On to `COc1ccc(CNC(=O)C(C)NC(=O)c2cc3ccccc3o2)cc1` (configuration not stated) [MLS000047147], for which the concentration for half-maximal inhibition (IC50) is > 100 µM.

With `c1ccc(-n2ncc3c2ncn2cnnc32)cc1` [MLS000048783], the IC50 is > 100 µM. `Cc1ccc(-n2ncc3c2ncn2c(C)nnc32)cc1C` [MLS000082333] returned an IC50 of 7.92 µM. This lies in the single-digit micromolar range.

Turning to `CCCc1nc2c3cnn(-c4cccc(Cl)c4)c3ncn2n1` [MLS000083263], the IC50 is > 100 µM. As for `OCc1nnn(-c2cccc(C(F)(F)F)c2)c1CO` [MLS000090420], the IC50 is > 100 µM. Then `CCN(CC)S(=O)(=O)c1ccc2c(c1)c(=O)c(C(=O)N1CCOCC1)cn2C` [MLS000092367], with > 100 µM; and `Oc1c2c(c(O)n1-c1nnc(Cc3ccccc3)[nH]1)CC=CC2` [MLS000100008], with 0.33 µM. In the case of `Cn1c(NC(=O)CC(C)(C)C)cc(=O)n(C)c1=O` [MLS000103608], the IC50 was > 100 µM. `CCCSc1nnc(NC(C)=O)[nH]1` [MLS000114796] gave an IC50 of 0.82 µM. For `Cc1cc(NC(=O)c2noc3c2CCc2ccccc2-3)n(-c2ccccc2)n1` [MLS000116423], the IC50 is > 100 µM. Then `CCCCNC(=O)c1ccc2nc(-c3ccco3)c(-c3ccco3)nc2c1` [MLS000119995], with > 100 µM; and `Cc1cc(=O)oc2n[nH]c(-c3ccccc3)c12` [MLS-0013971.0001], with 1.23 µM.

`CC1(C)Cc2c(sc3nc4n(c(=N)c23)CCCCC4)CO1` [SMR000039131] came in with a concentration for half-maximal inhibition (IC50) of 9.5 µM.

In turn, `COC(=O)c1cc(-c2c[nH]c3ccccc23)[nH]n1` [SMR000079439] displayed an IC50 of 1.17 µM. With `CCOC(=O)c1sc(NC(=O)CSc2nnc(-c3ccccc3)[nH]2)c(C#N)c1C` [ethyl 4-cyano-3-methyl-5-[[2-[(5-phenyl-1H-1,2,4-triazol-3-yl)sulfanyl]acetyl]amino]thiophene-2-carboxylate], the IC50 was 5.39 µM. Then `COC(=O)c1cc(-c2ccccc2)n[nH]1` [methyl 3-phenyl-1H-pyrazole-5-carboxylate], with 1.24 µM.
